This is an account of results in patent US20050090522A1 (priority 2001, published 2005).

One data set deals with HeLa cells. In words: Cytotoxicity assay in HeLa cells (MTT dye reduction, CC50). The settings on record: cytotoxicity; Yes = CC50 above 100 uM, No = not. In short, it runs like this: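 HeLa cells expressing CD4 and CCR5, grown in DMEM with 10% FBS, were used for cytotoxicity testing by MTT dye reduction; the text gives no further cytotoxicity conditions. The parallel antiviral assay exposed the same cells to compound at final <10 μM for 72 h.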
A general note: Tetrazolium dyes change colour on reduction, which living cells bring about.

Data set [1] is described as follows: Rat IV and PO pharmacokinetic studies. The settings on record: male, Sprague-Dawley, in vivo; for clearance: iv, 1 mg/kg, CL, iv dosing at 1 mg/kg; for AUC(0-t): po, 5 mg/kg, AUC 24 h, oral dosing at 5 mg/kg. On the procedure:
Rat Pharmacokinetic Studies: For the IV and PO pharmacokinetic studies of compounds in rats, the compound was dissolved in PEG-400/ethanol (90/10) as a solution. Rat. Male Sprague-Dawley rats (300-350 g, Hilltop Lab Animals, Inc., Scottdale, Pa.) with cannulas implanted in the jugular vein were used. The rats were fasted overnight in the PO pharmacokinetic studies. Blood samples of 0.3 ml were collected from the jugular vein in EDTA-containing microtainer tubes (Becton Dickinson, Franklin Lakes, N. J.), and centrifuged to separate plasma. In the IV study, the test compound was delivered at 1 mg/kg as a bolus over 0.5 min (n=3). […] Quantitation of Compounds in Plasma. […] The resulting supernates were separated from the precipitated proteins by centrifugation for 10 minutes and transferred to autosampler vials. Samples were either prepared manually, or with the use of the Tomtec automated liquid handler. An aliquot of 5 μL was injected for analysis. The HPLC system consisted of two Shimadzu LC10AD pumps (Columbia, Md.), a Shimadzu SIL-HTC autosampler (Columbia, Md.), and a Hewlett Packard Series 1100 column compartment (Palo Alto, Calif.). The column was a YMC Pro C18 (2.0×50 mm, 3 μm particles, Waters Co., Milford, Mass.), maintained at 60° C. and a flow rate of 0.3 ml/min. The mobile phase consisted of 10 mM ammonium formate and 0.1% formic acid in water (A) and 100% 10 mM ammonium formate and 0.1% formic acid in methanol (B). […] The mobile phase was then returned to initial conditions and the column re-equilibrated for 1 minute. Total analysis time was 4 minutes. The HPLC was interfaced to a Micromass Quattro LC. Ultra high purity nitrogen was used as the nebulizing and desolvation gas at flow rates of 100 L/hr for nebulization and 1100 L/hr for desolvation. The desolvation temperature was 300° C. and the source temperature was 150° C. Data acquisition utilized selected reaction monitoring (SRM). Ions representing the (M+H)^+ species for the compound and the internal standard were selected in MS 1 and collisionally dissociated with argon at a pressure of 2×10^−3 torr to form specific product ions which were subsequently monitored by MS2.
For accuracy, the determined measure of viral inhibition is an EC50; but the minimum plasma concentrations which should be maintained in a patient is generally believed to be at least four or five fold higher. […] Lower is better. • 4) Estimating potential exposure in man by measuring parameters such as AUC and rate of clearance by oral and iv dosing in rats. High exposure and low clearance was desired.
The rat model is an initial model used to assess potential for exposure in man.

A further data set concerns HIV-1. In words: HIV-1 single-round infectious luciferase reporter virus (pseudotype) assay in HeLa CD4 CCR5 cells. Format: cell-based. Summed up:
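HeLa CD4 CCR5 cells (5×10^4/well, DMEM + 10% FBS) were treated with compound (final <10 μM) and infected with single-round luciferase reporter virus made in 293 cells, at MOI ~0.01. Luciferase was read 72 h post infection. EC50 came from 10-concentration percent-inhibition curves fitted to a four-parameter logistic model.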
On the technique in general: Reporter assays use an easily measured gene product as a stand-in for the process of interest.

Data set [2] in a line: Metabolic stability in pooled human liver microsomes (HLM). The settings on record: pooled human liver microsomes, 3 μM drug; Low/Intermediate/High. Summed up: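 Pooled human liver microsomes (0.9 mg/ml final) in 0.1 M potassium phosphate pH 7.4 with 0.033 mM MgCl2 and an NADPH-regenerating system. Compound pre-incubated 2 min, reaction started with cofactors, run 10 min at 37° C, quenched in acetonitrile and analysed by LC/MS.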
In general terms: Liver microsomes are vesicles of endoplasmic reticulum, rich in cytochrome P450 enzymes.

Setting [3] is: Human immunodeficiency virus 1, HeLa-CD4/CCR5, read-out: EC50 Group from Table 1, Table 2-1, HeLa CD4 CCR5 cells, single-round luciferase reporter virus.
Where [4] appears, read: Human immunodeficiency virus 1, HeLa-CD4/CCR5, read-out: EC50 category, HIV-1 single-round reporter virus assay, category 1/2/3 per Table A1 key.
Where [5] appears, read: Human immunodeficiency virus 1, HeLa-CD4/CCR5, read-out: EC50 Group from TABLE 1, HeLa CD4 CCR5 cells, single-round infectious luciferase reporter virus.
Setting [6] is: Human immunodeficiency virus 1, HeLa-CD4/CCR5, 72 h, read-out: EC50 Group from Table 1, HeLa CD4 CCR5 cells, luciferase reporter virus, harvested 72 h after infection.

Where two headings read alike, the source gives them in different places.

As to `COc1cnc(-n2ccc(CO)n2)c2[nH]cc(C(=O)C(=O)N3CCN(C(=O)c4ccccc4)[C@H](C)C3)c12` [Example 236, (R)-1-benzoyl-2-methyl-4-[(4-methoxy-7-(3-hydroxylmethyl-pyrazol-1-yl)-6-azaindol-3-yl)-oxoacetyl]piperazine], the “CC50 > 100 uM” value with HeLa cells is given as “Yes”. Besides, the clearance in data set [1] worked out at 1.74 ± 0.402 L/h/kg. The AUC(0-t) (in general, exposure summed from dosing to a finite time, without extrapolation to infinity) in data set [1] was found to be 0.56 ± 0.25 µg·h/mL. In addition, the EC50 (as a rule, the concentration needed to bring the measured effect to its halfway point) was below 1 µM in the data set on HIV-1 (setting [3]) and below 0.0002 µM with HIV-1 (setting [4]). Also, the “HLM predicted human clearance class” value in data set [2] is “Low (0-0.100)”.
With `COc1cnc(-n2cncn2)c2[nH]cc(C(=O)C(=O)N3CCN(C(=O)c4ccccc4)[C@H](C)C3)c12` [Example 245, (R)-1-benzoyl-2-methyl-4-[(4-methoxy-7-(1,2,4-triazol-1-yl)-6-azaindol-3-yl)-oxoacetyl]piperazine], the “CC50 > 100 uM” value in the data set with HeLa cells was “Yes”. Besides, in data set [1], the clearance was 0.336 ± 0.108 L/h/kg and the AUC(0-t) worked out at 12.1 ± 1.3 µg·h/mL. Besides, in the data set on HIV-1 (setting [3]), the EC50 is below 1 µM. Also, the EC50 in the data set on HIV-1 (setting [4]) is below 0.0002 µM. In addition, the “HLM predicted human clearance class” value in data set [2] is “Low (0-0.100)”.
`COc1cnc(-c2cnc(N)cn2)c2[nH]cc(C(=O)C(=O)N3CCN(C(=O)c4ccccc4)[C@H](C)C3)c12` [Example 266]: the “CC50 > 100 uM” value with HeLa cells is given as “Yes”. In addition, in data set [1], the clearance was 2.24 ± 0.192 L/h/kg and the AUC(0-t) was determined as 0.16 ± 0.04 µg·h/mL. In the data set on HIV-1 (setting [3]), the EC50 is below 1 µM. Besides, the EC50 in the data set on HIV-1 (setting [4]) is below 0.0002 µM. Also, the “HLM predicted human clearance class” value in data set [2] was “Low (0-0.100)”.
Regarding `Nc1ccn(-c2ncc(F)c3c(C(=O)C(=O)N4CCN(C(=O)c5ccccc5)CC4)c[nH]c23)n1` [Example 309], the “CC50 > 100 uM” value in the data set with HeLa cells is reported as “Yes”. In data set [1], this compound yielded a clearance of 2.06 ± 0.156 L/h/kg and an AUC(0-t) of 0.09 ± 0.05 µg·h/mL. Besides, in the data set on HIV-1 (setting [5]), the EC50 was below 1 µM. In addition, the EC50 in the data set on HIV-1 (setting [4]) was below 0.0002 µM. In addition, in data set [2], the “HLM predicted human clearance class” value is recorded as “Low (0-0.100)”.
`Cc1ccn(-c2ncc(F)c3c(C(=O)C(=O)N4CCN(C(=O)c5ccccc5)CC4)c[nH]c23)n1` [Example 310]: in the data set on HeLa cells, the “CC50 > 100 uM” value is “Yes”. In data set [1], the clearance worked out at 0.99 ± 0.198 L/h/kg and the AUC(0-t) was determined as 2.1 ± 0.4 µg·h/mL. Further, the EC50 in the data set with HIV-1 (setting [5]) was below 1 µM. In addition, the EC50 in the data set on HIV-1 (setting [4]) is below 0.0002 µM. For the same compound, the “HLM predicted human clearance class” value in data set [2] is recorded as “Low (0-0.100)”.
Regarding `COc1cnc(-n2cnc(C)n2)c2[nH]cc(C(=O)C(=O)N3CCN(C(=O)c4ccccc4)[C@H](C)C3)c12` [Example 317], the “CC50 > 100 uM” value in the data set on HeLa cells is on record as “Yes”. Moreover, in data set [1], the clearance came to 0.114 ± 0.0156 L/h/kg and the AUC(0-t) was determined as 43 ± 12 µg·h/mL. Further, the EC50 in the data set on HIV-1 (setting [3]) is below 1 µM. Also, the EC50 with HIV-1 (setting [4]) is below 0.0002 µM. In addition, the “HLM predicted human clearance class” value in data set [2] is “Low (0-0.100)”.
For `CCc1ncn(-c2ncc(OC)c3c(C(=O)C(=O)N4CCN(C(=O)c5ccccc5)[C@H](C)C4)c[nH]c23)n1` [Example 322], in the data set on HeLa cells, the “CC50 > 100 uM” value is given as “Yes”. Moreover, in data set [1], the clearance was found to be 0.108 ± 0.024 L/h/kg and the area under the curve AUC(0-t) turned out to be 82 ± 23 µg·h/mL. Also, the EC50 with HIV-1 (setting [3]) is below 1 µM. In the data set with HIV-1 (setting [4]), the EC50 was below 0.0002 µM. For the same compound, the “HLM predicted human clearance class” value in data set [2] is “Low (0-0.100)”.
As to `COc1cnc(-n2cc(C)nn2)c2[nH]cc(C(=O)C(=O)N3CCN(C(=O)c4ccccc4)[C@H](C)C3)c12` [Example 326], the “CC50 > 100 uM” value in the data set on HeLa cells is “Yes”. Also, in data set [1], the clearance amounted to 0.498 L/h/kg and the AUC(0-t) was determined as 9.8 ± 2.9 µg·h/mL. Besides, the EC50 in the data set with HIV-1 (setting [3]) was below 1 µM. In the data set with HIV-1 (setting [4]), the EC50 was below 0.0002 µM. The “HLM predicted human clearance class” value in data set [2] is reported as “Low (0-0.100)”.
Consider `C[C@@H]1CN(C(=O)C(=O)c2c[nH]c3c(-c4ncco4)ccnc23)CCN1C(=O)c1ccccc1` [Example 353], for which the “CC50 > 100 uM” value with HeLa cells was “Yes”. The clearance in data set [1] was determined as 0.336 ± 0.066 L/h/kg. In addition, the AUC(0-t) in data set [1] was 1360 ± 307 µg·h/mL. In addition, the EC50 in the data set with HIV-1 (setting [6]) is below 1 µM; in the data set with HIV-1 (setting [4]) it was 0.0002 to 1 µM. Also, the “HLM predicted human clearance class” value in data set [2] is recorded as “Low (0-0.100)”.
For the compound `C[C@@H]1CN(C(=O)C(=O)c2c[nH]c3c(-c4nccs4)ccnc23)CCN1C(=O)c1ccccc1` [Example 354], the “CC50 > 100 uM” value in the data set with HeLa cells is on record as “Yes”. In data set [1], this compound showed a clearance of 0.672 ± 0.048 L/h/kg and an AUC(0-t) of 1.26 µg·h/mL. The EC50 in the data set on HIV-1 (setting [6]) was below 1 µM. Also, the EC50 with HIV-1 (setting [4]) lay in the range of 0.0002 to 1 µM. Besides, the “HLM predicted human clearance class” value in data set [2] was “Low (0-0.100)”.
As to `C[C@@H]1CN(C(=O)C(=O)c2c[nH]c3c(-n4nccn4)ccnc23)CCN1C(=O)c1ccccc1` [Example 355], the “CC50 > 100 uM” value in the data set with HeLa cells is recorded as “Yes”. In data set [1], this compound yielded a clearance of 0.834 ± 0.318 L/h/kg and an AUC(0-t) of 3.3 ± 0.77 µg·h/mL. The EC50 in the data set on HIV-1 (setting [6]) was below 1 µM. The EC50 in the data set on HIV-1 (setting [4]) lay within 0.0002 to 1 µM. Moreover, the “HLM predicted human clearance class” value in data set [2] is recorded as “Low (0-0.100)”.
